From BigSolDB 2.1

FC(F)(F)c1cccnc1Cl
solubility (mole fraction)
Conditions | 263.15 K | 268.15 K | 273.15 K | 278.15 K | 283.15 K | 288.15 K | 293.15 K | 298.15 K | 303.15 K
in ethanol | 0.0807 | 0.112 | 0.141 | 0.186 | 0.262 | 0.363 | 0.476 | 0.621 | 0.831
in ethyl acetate | 0.306 | 0.35 | 0.399 | 0.455 | 0.508 | 0.583 | 0.652 | 0.739 | 0.824
in n-butanol | 0.0947 | 0.118 | 0.14 | 0.183 | 0.229 | 0.284 | 0.345 | 0.421 | 0.51
